Two compounds from patent US9056176B2, “1-phenyl-2-pyridinyl alkyl alcohol compounds as phosphodiesterase inhibitors” (CHIESI FARMACEUTICI S.P.A., priority 2009, dated 2015) can be followed below.

The inhibition is the percentage by which the read-out fell short of the control.

Assay [1] has as its system LPS-induced TNF-α release in human PBMCs (PDE4 inhibitory activity). Nature of the assay: LPS-induced TNF-α release in peripheral blood mononuclear cells (PBMCs) assay. In kind it is cell-based. As to conditions: PBMC, LPS 3 ng/ml, 18 hours, TNF-α by ELISA, mean ± 95% confidence limits, read-out: molar concentration producing 50% inhibition of LPS-induced TNF-α release (IC50). As to the method: The assay, which is based on the known inhibitory activity exerted by PDE4 inhibitors on the lipopolyshaccarides (LPS)-induced tumour necrosis factor-alpha (TNF-α release in peripheral blood mononuclear cells (PBMCs), is performed according to a method previously described (Hatzelmann A et al., J. Pharmacol. Exp. Ther., 2001; 297:267-279; and Draheim R et al., J. Pharmacol. Exp. Ther., 2004; 308:555-563, both of which are incorporated herein by reference in their entireties.
Cryopreserved human PBMCs, (100 μl/well) are incubated in 96-well plates (10^5 cells/well), for 30 minutes, in the presence or absence (50 microl) of the test compounds whose concentrations range from 10^−12 M to 10^−6 M. Subsequently, LPS (3 ng/ml) is added.
After 18 hours incubation at 37° C. in a humidified incubator under an atmosphere of 95% air and 5% CO2, culture medium is collected and TNF-α is measured by ELISA.
The effects of the tested compounds are calculated as percentage of inhibition of TNF-α release, assuming LPS-induced TNF-α production in the absence of inhibitor compound as 100% and basal TNF-α production of PBMCs in the absence of LPS as 0%.

Assay [2] concerns OA-induced contraction in guinea-pig trachea. Nature of the assay: OA-induced contraction of tracheal preparations from OA-sensitised guinea pigs (organ bath). As to conditions: 30-minute pre-treatment. As to the method:
Zig-zag tracheal segments are obtained from male Ovoalbumin (OA)-sensitised guinea pigs and two preparations are obtained from a trachea. Each preparation is placed in 20-ml organ bath filled with oxygenated (O2 95% and CO2 5%) normal Krebs-Henseleit solution and maintained at 37° C. Tracheal preparations are connected to isometric force transducers under a resting tone of 1 g. After an equilibration period of 60 minutes, tracheal preparations are pretreated for 30 minutes with C1 (10^-7 M), Carmoterol (3*10^-10 M), the association C1 and Carmoterol or vehicle, respectively, followed by cumulative administration of OA (10^−10-10^−5 g/ml). At the end of the OA administration a maximal concentration of carbachol (10^−5 M) is added to obtain the maximal contraction of each preparation. The effects are expressed as percent values of the carbachol-induced maximal response (100%).

Turning to `CS(=O)(=O)Nc1ccc(C(=O)OC(Cc2c(Cl)cncc2Cl)c2ccc(OC(F)F)c(OCC3CC3)c2)cc1OCC1CC1` (single isomer, unassigned; (-)) [Compound C1, (−)-3-Cyclopropylmethoxy-4-methanesulfonylamino-benzoic acid 1-(3-cyclopropylmethoxy-4-difluoromethoxy-phenyl)-2-(3,5-dichloro-pyridin-4-yl)-ethyl ester], the IC50 in assay [1] lay in the range of 0.06 to 4.4 nM. Also, in assay [2] (Cavia porcellus, C1 10^−7 M), the inhibition at 0.1 µM came out at 23%.
With `COc1ccc(C[C@@H](C)NC[C@H](O)c2ccc(O)c3[nH]c(=O)ccc23)cc1` [Carmoterol, carmoterol, reference compound], the “inhibition of the OA-induced contraction” value in assay [2] (Carmoterol 3*10^-10 M) was found to be 18%.
